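Exposure lasted 48 hours, with cells grown in 96-well plates and compounds tested at five concentrations. GI50 = concentration required for 50% inhibition of growth.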 Active and inactive are the calls of the source. No stated cut-off is given here; in the data, active = GI50 up to about 1.1 µM and inactive = higher.
How the values were obtained:
Assay in all cases: inhibition of tumour cell growth, NCI panel, 48 h
[1] = tested on: Hs-578T
[2] = tested on: SK-MEL-2
[3] = tested on: NCI-H522
[4] = tested on: SW-620
[5] = tested on: SR
[6] = tested on: DU-145
[7] = tested on: U-251
[8] = tested on: CAKI-1
[9] = tested on: HOP-92
[10] = tested on: TK-10
[11] = tested on: SF-539
[12] = tested on: NCI-H460
[13] = tested on: COLO 205
[14] = tested on: UACC-62
[15] = tested on: SF-295
[16] = tested on: RPMI-8226
[17] = tested on: K562
[18] = tested on: MOLT-4
[19] = tested on: LOX IMVI
[20] = tested on: MDA-N

Compound | GI50 [1] | GI50 [2] | GI50 [3] | GI50 [4] | GI50 [5] | GI50 [6] | GI50 [7] | GI50 [8] | GI50 [9] | GI50 [10] | GI50 [11] | GI50 [12] | GI50 [13] | GI50 [14] | GI50 [15] | GI50 [16] | GI50 [17] | GI50 [18] | GI50 [19] | GI50 [20]
O=C(CSCC(=O)N/N=C/c1cccc(O)c1)N/N=C/c1cccc(O)c1 | > 100 µM (inactive) | > 100 µM (inactive) | > 100 µM (inactive) | > 100 µM (inactive) | > 100 µM (inactive) | > 100 µM (inactive) | > 100 µM (inactive) | > 100 µM (inactive) | > 100 µM (inactive) | > 100 µM (inactive) | > 100 µM (inactive) | > 100 µM (inactive) | > 100 µM (inactive) | > 100 µM (inactive) | > 100 µM (inactive) | > 100 µM (inactive) | > 100 µM (inactive) | > 100 µM (inactive) | – | –
CCCCCCNc1n[nH]c(=O)c2c1nnn2Cc1ccccc1 | – | > 100 µM (inactive) | – | – | > 100 µM (inactive) | > 100 µM (inactive) | > 100 µM (inactive) | > 100 µM (inactive) | 86.9 µM (inactive) | > 100 µM (inactive) | – | > 100 µM (inactive) | > 100 µM (inactive) | – | > 100 µM (inactive) | > 100 µM (inactive) | > 100 µM (inactive) | > 100 µM (inactive) | > 100 µM (inactive) | > 100 µM (inactive)
O=S1(=O)COc2ccccc2-c2ncncc21 | – | – | > 100 µM (inactive) | > 100 µM (inactive) | > 100 µM (inactive) | – | > 100 µM (inactive) | > 100 µM (inactive) | > 100 µM (inactive) | > 100 µM (inactive) | > 100 µM (inactive) | > 100 µM (inactive) | > 100 µM (inactive) | > 100 µM (inactive) | > 100 µM (inactive) | > 100 µM (inactive) | > 100 µM (inactive) | > 100 µM (inactive) | > 100 µM (inactive) | –
COC(=O)C1Cc2c(n(Cc3ccccc3)c3ccccc23)C(CCC(=O)O)N1C(C)C (stereo unspecified) | – | > 100 µM (inactive) | > 100 µM (inactive) | > 100 µM (inactive) | > 100 µM (inactive) | – | > 100 µM (inactive) | > 100 µM (inactive) | > 100 µM (inactive) | > 100 µM (inactive) | > 100 µM (inactive) | > 100 µM (inactive) | > 100 µM (inactive) | > 100 µM (inactive) | > 100 µM (inactive) | – | > 100 µM (inactive) | > 100 µM (inactive) | > 100 µM (inactive) | –
CNC(=O)NCCN1N=C(C)/C(=C\c2ccccc2)CC1=O | – | > 100 µM (inactive) | > 100 µM (inactive) | > 100 µM (inactive) | > 100 µM (inactive) | – | > 100 µM (inactive) | > 100 µM (inactive) | > 100 µM (inactive) | > 100 µM (inactive) | > 100 µM (inactive) | > 100 µM (inactive) | – | > 100 µM (inactive) | > 100 µM (inactive) | > 100 µM (inactive) | > 100 µM (inactive) | > 100 µM (inactive) | > 100 µM (inactive) | –
CCCc1cn2c(/C=N/NC(=N)N)c(-c3ccc([N+](=O)[O-])cc3)nc2s1 | 2.33 µM (inactive) | 2.13 µM (inactive) | 2.08 µM (inactive) | 0.342 µM (active) | 0.245 µM (active) | 1.77 µM (inactive) | 0.769 µM (active) | 1.69 µM (inactive) | 6.01 µM (inactive) | 1.81 µM (inactive) | 4.88 µM (inactive) | 1.93 µM (inactive) | 0.891 µM (active) | 1.82 µM (inactive) | 0.912 µM (active) | 0.45 µM (active) | 0.286 µM (active) | 0.231 µM (active) | 1.39 µM (inactive) | –
Cc1cc(=O)c2cc(/N=C/c3ccc([N+](=O)[O-])o3)ccc2o1 | > 100 µM (inactive) | > 100 µM (inactive) | 64.6 µM (inactive) | 63.5 µM (inactive) | 32.7 µM (inactive) | > 100 µM (inactive) | > 100 µM (inactive) | > 100 µM (inactive) | > 100 µM (inactive) | > 100 µM (inactive) | > 100 µM (inactive) | > 100 µM (inactive) | > 100 µM (inactive) | 56.1 µM (inactive) | > 100 µM (inactive) | 35.5 µM (inactive) | 33.7 µM (inactive) | 37.4 µM (inactive) | 42.7 µM (inactive) | –
CC12CCC(CC1(Cl)Cl)C2 (stereo unspecified) | > 100 µM (inactive) | > 100 µM (inactive) | > 100 µM (inactive) | > 100 µM (inactive) | > 100 µM (inactive) | – | > 100 µM (inactive) | > 100 µM (inactive) | > 100 µM (inactive) | > 100 µM (inactive) | – | > 100 µM (inactive) | > 100 µM (inactive) | > 100 µM (inactive) | > 100 µM (inactive) | > 100 µM (inactive) | > 100 µM (inactive) | > 100 µM (inactive) | > 100 µM (inactive) | –
